Experiments:
[1] = Metabolism, excretion and oral bioavailability in mice; format: in vivo, mouse
isolated pure human CRP = target: T1, isolated pure human CRP (Homo sapiens, UniProt P02741); test: Size exclusion chromatography of isolated pure CRP mixed with drug; format: binding
T1 sequence (P02741 19-224): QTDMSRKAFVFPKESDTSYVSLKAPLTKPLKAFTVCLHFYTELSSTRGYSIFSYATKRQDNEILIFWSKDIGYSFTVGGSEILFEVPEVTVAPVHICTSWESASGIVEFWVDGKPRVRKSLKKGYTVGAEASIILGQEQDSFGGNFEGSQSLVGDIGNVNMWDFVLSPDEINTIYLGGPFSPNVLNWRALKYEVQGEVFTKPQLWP
Method: C-reactive protein (CRP) is a pentraxin closely related to SAP. Samples of isolated pure human SAP or CRP were mixed with (R)-1-[6-(R)-2-Carboxy-pyrrolidin-1-yl]-6-oxo-hexanoyl]pyrrolidine-2-carboxylic acid at the molar ratios shown, with respect to pentraxin protomer, in physiological ionic strength Tris buffered saline pH 8.0, and analysed by size exclusion chromatography precisely as described previously (14). The mixtures and the column eluants contained either no calcium ions or 2 mM calcium, and the concentrations of drug appropriate to maintain the molar ratios indicated above. In the absence of a specific ligand to which it can bind, purified human SAP is insoluble in the presence of calcium and elutes as high molecular weight aggregates in the void volume of the column (14). However in the absence of calcium and ligand, isolated SAP alone forms stable decamers, providing an excellent marker for the elution volume of this molecular assembly (14). Human CRP is a stable pentamer either in the presence or absence of calcium and thus provides a robust marker for the elution position of that molecular form (14).

radiolabelled human SAP = target: T2, radiolabelled human SAP (Homo sapiens, UniProt P02743); test: Plasma clearance of radiolabelled human SAP tracer in mice; format: in vivo, mouse
T2 construct: intravenous injection of ^125I-labelled pure human or mouse SAP at time zero
Method: (§1) Clearance from the amyloid deposits, catabolism and excretion of the human SAP tracer were monitored globally by whole body counting of the mice (left), and the total amount of mouse SAP in the amyloidotic organs was determined after killing the animals on day 5 (right). […] Immediately after the 15 minute bleed, two groups, one that had received human SAP and the other mouse SAP, received a single intraperitoneal injection of 5 mg of (R)-1-[6-(R)-2-Carboxy-pyrrolidin-1-yl]-6-oxo-hexanoyl]pyrrolidine-2-carboxylic acid (desapin). Tracer remaining in the circulation is expressed as the mean (SD) percentage of the amount at the 15 minute time point for each group. […] In one of each of the pairs of groups receiving mouse or human SAP respectively, the tracer had been mixed with (R)-1-[6-(R)-2-Carboxy-pyrrolidin-1-yl]-6-oxo-hexanoyl]pyrrolidine-2-carboxylic acid (desapin) and incubated in vitro before injection into the animals. Tracer remaining in the circulation is expressed as mean (SD) total radioactivity per gram of blood in each group. Bottom panel: effect of administration of (R)-1-[6-(R)-2-Carboxy-pyrrolidin-1-yl]-6-oxo-hexanoyl]pyrrolidine-2-carboxylic acid (desapin) in the drinking water at the concentrations shown, on circulating human SAP values in human SAP transgenic mice. Mice of approximately 20 g body weight consume about 3 ml water per day. […]

plasma SAP = target: T3, plasma SAP (Homo sapiens, UniProt P02743); test: Subcutaneous injection in patients with systemic amyloidosis: plasma SAP; format: in vivo; conditions: subcutaneous injection 0.25 mg/kg/day in 12 hourly divided doses
T3 construct: from tissue; host or cells: plasma of patients in vivo
Method: The doses of (R)-1-[6-(R)-2-Carboxy-pyrrolidin-1-yl]-6-oxo-hexanoyl]pyrrolidine-2-carboxylic acid (desapin) shown were given by 12 hourly subcutaneous injections to two individual patients with systemic amyloidosis, and with small and moderate amyloid loads respectively. The disappearance of circulating SAP was effectively the same as during intravenous infusion of the drug, and in the patient illustrated in the right panel, who had received a tracer dose of ^123I-SAP, there was accumulation of SAP in the liver and accelerated clearance from the spleen.

mouse SAP = target: T4, mouse SAP (Mus musculus, UniProt P12246); test: Endogenous mouse SAP in amyloid deposits of mice with AA amyloidosis; format: in vivo
T4 construct: all the endogenous mouse SAP in the deposits; from tissue; host or cells: mice in vivo: amyloidotic organs, or plasma of normal wild type mice
T4 sequence (P12246 21-224): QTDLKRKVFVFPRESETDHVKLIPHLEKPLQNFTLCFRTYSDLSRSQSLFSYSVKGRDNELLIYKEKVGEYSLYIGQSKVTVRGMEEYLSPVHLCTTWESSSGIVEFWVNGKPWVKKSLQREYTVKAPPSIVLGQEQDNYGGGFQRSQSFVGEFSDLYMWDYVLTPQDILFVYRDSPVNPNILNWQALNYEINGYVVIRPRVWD
Method: as §1

[2] = target: serum amyloid P component (SAP) (Homo sapiens, UniProt P02743); test: Inhibition of SAP binding to amyloid fibrils in vitro
From the text: A method for screening and testing inhibitors of serum amyloid P component (SAP) binding to amyloid fibrils in vitro was devised and used in collaboration with F Hoffmann-La Roche Ltd to identify a suitable lead molecule for drug development. A library of candidate compounds was screened accordingly. The subsequent collaborative medicinal chemistry programme led to synthesis of a family of dicarboxylic acid, pyrrolidone ring containing molecules, of which the most studied is (R)-1-[6-(R)-2-Carboxy-pyrrolidin-1-yl]-6-oxo-hexanoyl]pyrrolidine-2-carboxylic acid. This molecule and related compounds (EP-A-0915088) are modestly potent inhibitors of SAP binding to amyloid fibrils in vitro, with IC50 values around 0.5-1.0 μM.
Further studies determined that each of the following bis-D-Proline compounds were tested for their ability to deplete SAP in vivo as described above. Each of the compounds identified below successfully depleted SAP. In addition, certain of the compounds were further tested for in vitro inhibition of binding of SAP to amyloid fibrils in accordance with the protocol provided in EP 0915088 at page 10, as referenced above. The results are shown in the second column below, where applicable.

[3] = drug:protein 1:1, calcium present
[4] = drug:protein 10:1, calcium present

T2 sequence (P02743 20-223): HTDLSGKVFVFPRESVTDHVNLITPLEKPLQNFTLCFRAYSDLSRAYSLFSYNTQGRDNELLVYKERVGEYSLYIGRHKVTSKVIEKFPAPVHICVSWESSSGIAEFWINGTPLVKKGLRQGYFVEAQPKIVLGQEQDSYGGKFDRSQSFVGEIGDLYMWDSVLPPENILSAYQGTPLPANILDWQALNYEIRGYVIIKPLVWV
Sequence of serum amyloid P component (SAP) (P02743 20-223): as above
T3 sequence (P02743 20-223): as above

**Q.** With `O=C(O)[C@H]1CCCN1C(=O)CCCCC(=O)N1CCC[C@@H]1C(=O)O` [(R)-1-[6-(R)-2-Carboxy-pyrrolidin-1-yl]-6-oxo-hexanoyl]pyrrolidine-2-carboxylic acid] as the compound, how does the Excretion [1] read?
**A.** very rapidly excreted, predominantly in the urine, with a small amount in the bile

**Q.** And the Metabolism [1]?
**A.** not metabolised

**Q.** What about the Oral bioavailability [1] of the same compound?
**A.** very limited oral bioavailability

**Q.** What about the “Elution volume” value (isolated pure human CRP; [3]) of the same compound?
**A.** 12.58 mL

**Q.** What about the Molecular assembly (isolated pure human CRP; [3]) of the same compound?
**A.** Pentamer

**Q.** And the “Elution volume” value (isolated pure human CRP; [4])?
**A.** 11.96 mL

**Q.** What about the Molecular assembly (isolated pure human CRP; [4]) of the same compound?
**A.** Pentamer

**Q.** And the “Plasma clearance of radiolabelled human SAP tracer” value (radiolabelled human SAP; single intraperitoneal injection of 5 mg)?
**A.** accelerated

**Q.** And the “Clearance of radiolabelled human SAP preincubated with drug in vitro” value (radiolabelled human SAP; tracer preincubated with drug before intravenous injection into normal mice)?
**A.** extremely rapidly cleared

**Q.** And the “Effect on plasma SAP compared with intravenous infusion” value (plasma SAP)?
**A.** the same effect

**Q.** And the “Removal of endogenous mouse SAP from amyloid deposits” value (mouse SAP; 15 mg/kg/day, continuous infusion)?
**A.** removed all the mouse SAP

**Q.** And the “Dose required to dissociate any endogenous mouse SAP significantly” value (mouse SAP; continuous infusion for 5 days via osmotic pump)?
**A.** 1.5 mg/kg/day

**Q.** And the “Potency as inhibitor of SAP binding to amyloid fibrils relative to original lead compound” value ([2]; compared with 1-(3-Mercapto-2-methyl-1-oxopropyl)-D-proline)?
**A.** more potent inhibitors than the original lead compound

**Q.** What about the IC50 ([2]; read-out: IC50, inhibition of SAP binding to amyloid fibrils in vitro) of the same compound?
**A.** 500 to 1000 nM

— patent US8173694B2, “Therapeutic agent” (Pentraxin Therapeutics Limited, priority 2001, dated 2012)
